Experimental data reported in US7879848B2, “Dipeptidyl Peptidase-IV inhibiting compounds, method of preparing the same, and pharmaceutical compositions containing the same as an active agent” (LG Life Sciences, Ltd., priority 2005, dated 2011).
pIC50: −log10 of the molar value.

Target: T1, Dipeptidyl Peptidase-IV (DPP-IV) (Homo sapiens, UniProt P27487)
T1 construct: made in house
Assay: Measurement of DPP-IV Activity-Inhibiting Ability (fluorescent substrate Ac-Gly-Pro-AFC)
Type: biochemical
Settings: 25° C., 50 mmol HEPES (pH 7.4), DP-IV 7.1 nM, enzyme reaction for 1 hour
From the text: Dipeptidyl Peptidase-IV (DPP-IV), known as serine protease, was obtained by a modification of the known method (Tanaka T. et al, Proc. Natl. Acad. Sci. USA, (1994) 91, 3082-3086), which comprises cloning, purification by use of Baculo-Virus and activation steps. DPP-IV was used to test the pharmaceutical efficacy of candidate inhibitors as follows. The cloned DP-IV was expressed in Baculo-Virus, which was purified by nickel column and then subjected to dialysis. The inhibitors synthesized in Examples were tested to determine the binding activity there of using a fluorescent substrate, Ac-Gly-Pro-AFC. Enzyme reactions were conducted for various concentrations of inhibitors, using 100 µM Ac-Gly-Pro-AFC at 25° C. in a buffer solution containing 50 mmol HEPES (pH 7.4), with the concentration of DP-IV being 7.1 nM. […] As the fluorescent spectrometer, Spectra MAX GeminiXS fluorescent spectrometer from Molecular Device Co. was used and the excitation frequency and emission frequency were set to 400 nm and 505 nm, respectively.

T1 sequence (P27487 whole entry): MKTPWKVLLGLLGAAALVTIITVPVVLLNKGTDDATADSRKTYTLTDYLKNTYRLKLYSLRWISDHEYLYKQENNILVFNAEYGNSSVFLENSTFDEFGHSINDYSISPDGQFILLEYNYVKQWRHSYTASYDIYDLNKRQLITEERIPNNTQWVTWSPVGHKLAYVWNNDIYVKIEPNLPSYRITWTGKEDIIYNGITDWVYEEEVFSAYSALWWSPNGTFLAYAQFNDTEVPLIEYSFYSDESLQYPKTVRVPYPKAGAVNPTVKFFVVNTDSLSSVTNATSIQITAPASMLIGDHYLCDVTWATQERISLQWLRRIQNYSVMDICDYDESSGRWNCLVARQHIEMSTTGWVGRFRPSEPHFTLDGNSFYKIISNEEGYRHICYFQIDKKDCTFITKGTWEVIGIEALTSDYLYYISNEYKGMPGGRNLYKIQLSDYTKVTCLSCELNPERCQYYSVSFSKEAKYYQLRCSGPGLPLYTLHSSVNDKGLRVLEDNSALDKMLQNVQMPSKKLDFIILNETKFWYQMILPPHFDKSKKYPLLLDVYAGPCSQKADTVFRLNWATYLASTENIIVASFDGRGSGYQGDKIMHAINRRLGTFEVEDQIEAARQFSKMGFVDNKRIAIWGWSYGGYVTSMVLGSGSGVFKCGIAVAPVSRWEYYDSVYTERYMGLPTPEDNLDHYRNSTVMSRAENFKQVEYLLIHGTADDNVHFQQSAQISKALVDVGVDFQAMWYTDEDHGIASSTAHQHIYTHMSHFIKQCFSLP

Q: How did the pIC50 turn out when `C[C@H]1CN(C[C@@H](N)CC(=O)N2CCc3c(nc(C4CC4)nc3C(F)(F)F)C2)C(=O)CO1` [Ex. 27, (6S)-4-{(2S)-2-amino-4-[2-cyclopropyl-4-(trifluoromethyl)-5,8-dihydropyrido[3,4-d]pyrimidin-7(6H)-yl]-4-oxobutyl}-6-methylmorpholine-3-one] was run?
A: 7.55

Q: With `N[C@@H](CC(=O)N1CCc2c(cccc2C(F)(F)F)C1)CN1CC(F)(F)CCC1=O` [Ex. 28, 1-{(2S)-2-amino-4-oxo-4-[5-(trifluoromethyl)-3,4-dihydroisoquinolin-2(1H)-yl]butyl}5,5-difluoropiperidin-2-one] as the molecule, how does the pIC50 read?
A: 5.93

Q: `C[C@H]1CN(C[C@@H](N)CC(=O)N2CCc3c(cccc3C(F)(F)F)C2)C(=O)CO1` [Ex. 29, (6S)-4-{(2S)-2-amino-4-oxo-4-[5-(trifluoromethyl)-3,4-dihydroisoquinolin-2(1H)-yl]butyl}-6-methylmorpholine-3-one] was tested. Which pIC50 did it give?
A: 6.76

Q: `N[C@@H](CC(=O)N1CCc2c(nc(-c3ccc(F)cc3)nc2C(F)(F)F)C1)CN1CC(F)(F)CCC1=O` [Ex. 30, 1-{(2S)-2-amino-4-[2-(4-fluorophenyl)-4-(trifluoromethyl)-5,8-dihydropyrido[3,4-d]pyrimidin-7(6H)-yl]-4-oxobutyl}-5,5-difluoropiperidin-2-one] was tested. Which pIC50 did it give?
A: 7.68

Q: How did the pIC50 turn out when `C[C@H]1CN(C[C@@H](N)CC(=O)N2CCc3c(nc(-c4ccc(F)cc4)nc3C(F)(F)F)C2)C(=O)CO1` [Ex. 31] was run?
A: 7.60

Q: `N[C@@H](CC(=O)N1CCc2c(nc(-c3cccc(F)c3)nc2C(F)(F)F)C1)CN1CC(F)(F)CCC1=O` [Ex. 32, 1-{(2S)-2-amino-4-[2-(3-fluorophenyl)-4-(trifluoromethyl)-5,8-dihydropyrido[3,4-d]pyrimidin-7(6H)-yl]-4-oxobutyl}-5,5-difluoropiperidin-2-one] was tested. Which pIC50 did it give?
A: 6.70

Q: `C[C@H]1CN(C[C@@H](N)CC(=O)N2CCc3c(nc(-c4cccc(F)c4)nc3C(F)(F)F)C2)C(=O)CO1` [Ex. 33] was tested. Which pIC50 did it give?
A: 6.77

Q: With `C[C@@H]1CCC(=O)N(C[C@@H](N)CC(=O)N2CCc3c(nc(-c4ccc(F)cc4)nc3C(F)(F)F)C2)C1` [Ex. 34, (5R)-1-{(2S)-2-amino-4-[2-(4-fluorophenyl)-4-(trifluoromethyl)-5,8-dihydropyrido[3,4-d]pyrimidin-7(6H)-yl]-4-oxobutyl}-5-methylpiperidin-2-one] as the molecule, how does the pIC50 read?
A: 7.47

Q: `N[C@@H](CC(=O)N1CCc2c(nc(-c3ccc(F)c(F)c3)nc2C(F)(F)F)C1)CN1CC(F)(F)CCC1=O` [Ex. 35, 1-{(2S)-2-amino-4-[2-(3,4-difluorophenyl)-4-(trifluoromethyl)-5,8-dihydropyrido[3,4-d]pyrimidin-7(6H)-yl]-4-oxobutyl}-5,5-difluoropiperidin-2-one] was tested. Which pIC50 did it give?
A: 7.29

Q: How did the pIC50 turn out when `C[C@H]1CN(C[C@@H](N)CC(=O)N2CCc3c(nc(-c4ccc(F)c(F)c4)nc3C(F)(F)F)C2)C(=O)CO1` [Ex. 36] was run?
A: 7.48

Q: How did the pIC50 turn out when `C[C@@H]1CCC(=O)N(C[C@@H](N)CC(=O)N2CCc3c(nc(-c4ccc(F)c(F)c4)nc3C(F)(F)F)C2)C1` [Ex. 37, (5R)-1-{(2S)-2-amino-4-[2-(3,4-difluorophenyl)-4-(trifluoromethyl)-5,8-dihydropyrido[3,4-d]pyrimidin-7(6H)-yl]-4-oxobutyl}-5-methylpiperidin-2-one] was run?
A: 7.44

Q: `C[C@@H]1CCC(=O)N(C[C@@H](N)CC(=O)N2CCc3c(nc(C4CCCC4)nc3C(F)(F)F)C2)C1` [Ex. 38, (5R)-1-{(2S)-2-amino-4-[2-cyclopentyl-4-(trifluoromethyl)-5,8-dihydropyrido[3,4-d]pyrimidin-7(6H)-yl]-4-oxobutyl}-5-methylpiperidin-2-one] was tested. Which pIC50 did it give?
A: 7.70

Q: `C[C@H]1CN(C[C@@H](N)CC(=O)N2CCc3c(nc(C4CCCC4)nc3C(F)(F)F)C2)C(=O)CO1` [Ex. 39] was tested. Which pIC50 did it give?
A: 7.29

Q: With `N[C@@H](CC(=O)N1CCc2c(nc(C3CCCC3)nc2C(F)(F)F)C1)CN1CC(F)(F)CCC1=O` [Ex. 40, 1-{(2S)-2-amino-4-[2-cyclopentyl-4-(trifluoromethyl)-5,8-dihydropyrido[3,4-d]pyrimidin-7(6H)-yl]-4-oxobutyl}-5,5-difluoropiperidin-2-one] as the molecule, how does the pIC50 read?
A: 7.52
